Data: patent publication US20240207262A1, “PROPHYLACTIC AND/OR THERAPEUTIC AGENT FOR AMYOTROPHIC LATERAL SCLEROSIS” (NATIONAL UNIVERSITY CORPORATION TOKAI NATIONAL HIGHER …, priority 2021, published 2024)

Legend:
[1] = system: mouse spinal cord motor neurons; assay: Spinal cord ChAT staining (motor neurons) in SOD1^G93A transgenic mice; type: in vivo
Procedure: (§1) PF-04457845 was mixed in the diet, and administration started at 8 weeks of age. […] Drug efficacy analysis was conducted using body weight, motion analysis based on the Rotarod test (measured once a week), and survival analysis.
In accordance with the method shown in FIG. 6, the drug was administered, and the pathological specimens of mouse spinal cords in an advanced stage of the disease were subjected to ChAT staining (motor neuron).
19W and 22W PF-04457845-administered mouse spinal cords were compared with a 19W control-administered mouse spinal cord.
The photographs are of a 22W PF-04457845-administered mouse spinal cord and a 19W control-administered mouse spinal cord.
(§2) A 16W PF-04457845-administered mouse spinal cord was compared with a 16W control-administered mouse spinal cord.
The photographs are of the 16W PF-04457845-administered mouse spinal cord and 16W control-administered mouse spinal cord.

[2] = system: SOD1^G93A transgenic mice; assay: Rotarod test (motion analysis) in SOD1^G93A transgenic mice; type: in vivo, mouse; settings: 1 mg/kg/day in diet, vs control diet; 2-way ANOVA, p=0.002
Procedure: as §1
(§3) • Week 0: • Week 6: 1. Body weight, 2. Rotarod test (the method for measuring the motor function of mice) • Week 8: The drug (PF-04457845) was mixed with the diet, and administration started. • Week 9-10: Onset • Around week 17-20: Survival analysis
(§4) PF-04457845 was administered at a dose of 1 mg/kg/day. The dosage was determined based on a previous report on administration to rats (Ahn K et al. Journal of Pharmacology and Experimental Therapeutics 2011: 338; 114-124).

[3] = system: NSC34 cells (mouse motor neuron) expressing SOD1^G93A; assay: WST cell viability assay, NSC34 cells transfected with SOD1^G93A; type: cell-based; settings: for Viability (SOD1^G93A): ratio of maximum viability to viability at 0 μM
Procedure: (§5) A pathological cell model was created by transient forced expression of the following genes in NSC34 cells (mouse motor neuron) by transfecting the cells with a plasmid using Lipofectamine 2000 (R) (Thermo Fisher Scientific), and changes in cell viability due to drug administration were analyzed by WST assay.
(§6) • Day 0: NSC 34 cell culture (DMEM FBS 10%) • Day 1: Transfection (Cells were transfected with a plasmid having the following genes inserted by using Lipofectamine 2000 (R) (Thermo Fisher Scientific).) • 1. Mock (unmutated cells: control plasmid-transfected cells) • 2. TDP-43^A315T: TDP-43 mutation model (reflecting human pathological conditions) • 3. SOD1^G93A: mutation SOD1 familial model (mutation common to humans and animal models) • Cell culture is continued afterward in FBS-free DMEM. • Day 4: Drug administration • Day 5: WST assay (Cell viability is measured to determine the effect of drug administration.)
(§7) Two types of cellular models were used to bridge the gap between SOD1 transgenic mouse models and sporadic ALS human pathological conditions (TDP-43 cell model).
(§8) The viability indicates the ratio of maximum viability to viability at 0 μM. The […] PF-04457845 yielded a viability about 1.3 times the viability with the existing drug riluzole (control) at a concentration one-tenth the concentration of riluzole.

NSC34 cells = assay: WST cell viability assay, NSC34 ALS model cells (model not given); type: cell-based, mouse
Procedure: as §5, §6
The experimental conditions are those described in FIG. 3.

microglia = assay: Spinal cord Iba-1 staining in SOD1^G93A transgenic mice; type: in vivo; settings: 16W treated vs 16W control mouse spinal cord
Procedure: as §1, §2

[4] = Body weight of SOD1^G93A transgenic mice; type: in vivo, mouse; settings: 1 mg/kg/day in diet, vs control diet; 2-way ANOVA; trend toward limiting weight loss
Procedure: as §1, §3, §4

astrocytes = assay: Spinal cord GFAP staining in SOD1^G93A transgenic mice; type: in vivo; settings: 16W treated vs 16W control mouse spinal cord
Procedure: as §1, §2

mouse spinal cords = assay: Mouse spinal cord RNA sequencing (GO and IPA analysis) in SOD1^G93A transgenic mice; type: in vivo; settings: 16 weeks of age, drug diet vs control diet
Procedure: The experiment of PF-04457845 administration to SOD1^G93A transgenic mice was continued, and RNA sequencing of the spinal cord was performed on mice treated with a drug-infused diet and mice treated with a control diet, both at 16 weeks of age.
GO analysis: This is a method for analyzing a group of genes that have many variable genes when genes are grouped according to their functionality among mRNAs whose RNA sequences show changes.
IPA analysis: An analysis to explore the association of known pathways, upstream factors, and toxicity with disease.

[5] = system: SOD1^G93A transgenic mice; assay: Survival analysis in SOD1^G93A transgenic mice; type: in vivo, mouse; settings: 1 mg/kg/day mixed in diet from 8 weeks of age, vs control diet; log rank test p<0.001
Procedure: as §1
An ALS model animal with mutation of SOD1 gene, which is responsible for familial ALS, was used to conduct efficacy analysis of PF-04457845. The control was one that was free of the drug.
as §3, §4
In accordance with the method shown in FIG. 6, survival analysis was performed. • ♂ (male), PF-04457845: n=8, Control: […] • ♀ (female), PF-04457845: n=8, Control: n=13 • Log rank test p<0.001

[6] = system: NSC34 cells (mouse motor neuron) expressing TDP-43^A315T; assay: WST cell viability assay, NSC34 cells transfected with TDP-43^A315T; type: cell-based; settings: for Viability (TDP-43^A315T): ratio of maximum viability to viability at 0 μM
Procedure: as §5, §6, §7, §8

Row | Structure (SMILES) | ChAT-positive motor neuron count in spinal cord ([1]; 16W treated mice vs 16W control mice) | ChAT-positive motor neuron count in spinal cord ([1]; 19W and 22W treated mice vs 19W control mice, advanced stage) | Rotarod test (motor function) [2] | Improving cell viability, SOD1 (G93A) mutation cell model ([3]; 10 nM) | Viability (SOD1^G93A) ([3]; concentration 10 nM) | Viability relative to the viability with riluzole (control) (NSC34 cells; at a concentration one-tenth the concentration of riluzole) | Improving effect on cell viability compared with other FAAH inhibitors (NSC34 cells; vs PF-3845, arachidonoyl serotonin, FAAH inhibitor II, conditions of FIG. 3) | Iba-1 staining: proliferation of microglia (microglia) | Body weight [4] | GFAP staining: proliferation of astrocytes (astrocytes) | Expression of CD36 in mouse spinal cords (mouse spinal cords) | Expression of Pla2g3 in mouse spinal cords (mouse spinal cords) | Expression of lipoprotein lipase (Lpl) in mouse spinal cords (mouse spinal cords) | IL-13 signaling pathway (IPA analysis) (mouse spinal cords) | Survival period [5] | Improving cell viability, TDP-43 mutation (A315T) cell model ([6]; 10 nM) | Viability (TDP-43^A315T) ([6]; concentration 10 nM) | Viability (SOD1^G93A) ([3]; concentration 0.1 μM) | Viability (TDP-43^A315T) ([6]; concentration 0.1 μM)
1 | O=C(Nc1cccnn1)N1CCC(=Cc2cccc(Oc3ccc(C(F)(F)F)cn3)c2)CC1 [PF-04457845, N-pyridazin-3-yl-4-(3-{[5-(trifluoromethyl)pyridin-2-yl]oxy}benzylidene) piperidine-1-carboxamide] | effect of limiting the decrease in motor neuron count | effect of limiting the decrease in motor neuron count | significant progression-inhibiting effect | highly effective in improving the cell viability | 1.26 | about 1.3 times | more effective in improving cell viability | effect of inhibiting the proliferation of microglia | no significant difference in body weight | effect of inhibiting the proliferation of astrocytes | increased | decreased | increased | activation of IL-13 signaling pathway | effect of prolonging the survival period was observed | highly effective in improving the cell viability | 1.31 | – | –
2 | Nc1nc2ccc(OC(F)(F)F)cc2s1 [Riluzole, riluzole] | – | – | – | – | – | – | – | – | – | – | – | – | – | – | – | – | – | 1.00 | 1.03
